What was measured:
[1] = xn = mol fraction of the nth substance listed; settings: 101 kPa, Liquid
[2] = 101 kPa, Liquid
[3] = refractive index (Na D-line) (dimensionless); settings: 298.15 K; 101.33 kPa; Liquid; Standard Abbe refractometry

Cc1cccc(C)c1 [1,3-dimethylbenzene] + CCCCCCCC
[1]
Settings	mass density [kg/m3]
298.15 K, x2 = 0	859.85
298.15 K, x2 = 0.06642	845.86
298.15 K, x2 = 0.1397	831.1
298.15 K, x2 = 0.2052	818.49
298.15 K, x2 = 0.276	805.42
298.15 K, x2 = 0.323	797.05
298.15 K, x2 = 0.3982	784.13
298.15 K, x2 = 0.4618	773.65
298.15 K, x2 = 0.5432	760.8
298.15 K, x2 = 0.5993	752.28
298.15 K, x2 = 0.6755	741.14
298.15 K, x2 = 0.7284	733.68
298.15 K, x2 = 0.7851	725.91
298.15 K, x2 = 0.8583	716.27
298.15 K, x2 = 0.925	707.79
308.15 K, x2 = 0	851.2
308.15 K, x2 = 0.06642	837.23
308.15 K, x2 = 0.1397	822.5
308.15 K, x2 = 0.2052	809.92
308.15 K, x2 = 0.276	796.89
308.15 K, x2 = 0.323	788.53
308.15 K, x2 = 0.3954	776.12
308.15 K, x2 = 0.4618	765.21
308.15 K, x2 = 0.5432	752.4
308.15 K, x2 = 0.5993	743.9
308.15 K, x2 = 0.6755	732.79
308.15 K, x2 = 0.7284	725.36
308.15 K, x2 = 0.7851	717.64
308.15 K, x2 = 0.8583	708.01
308.15 K, x2 = 0.925	699.57
318.15 K, x2 = 0	842.66
318.15 K, x2 = 0.0687	828.23
318.15 K, x2 = 0.1168	818.54
318.15 K, x2 = 0.207	801.13
318.15 K, x2 = 0.2651	790.45
318.15 K, x2 = 0.3289	779.13
318.15 K, x2 = 0.4087	765.6
318.15 K, x2 = 0.4672	756.08
318.15 K, x2 = 0.5321	745.88
318.15 K, x2 = 0.6067	734.61
318.15 K, x2 = 0.6634	726.39
318.15 K, x2 = 0.7288	717.2
318.15 K, x2 = 0.7923	708.59
318.15 K, x2 = 0.8634	699.33
318.15 K, x2 = 0.9502	688.48
328.15 K, x2 = 0	834.13
328.15 K, x2 = 0.0687	819.75
328.15 K, x2 = 0.1168	810.1
328.15 K, x2 = 0.207	792.73
328.15 K, x2 = 0.2651	782.09
328.15 K, x2 = 0.3289	770.81
328.15 K, x2 = 0.4087	757.32
328.15 K, x2 = 0.4672	747.81
328.15 K, x2 = 0.5287	738.2
328.15 K, x2 = 0.6067	726.45
328.15 K, x2 = 0.6634	718.26
328.15 K, x2 = 0.7288	709.11
328.15 K, x2 = 0.7923	700.55
328.15 K, x2 = 0.8634	691.33
328.15 K, x2 = 0.9502	680.52

c1ccccc1 [benzene]
[2]
Settings	mass density [kg/m3]
298.15 K	873.62
308.15 K	863.01
318.15 K	852.16
328.15 K	841.49

Settings	refractive index
[3]	1.4979

c1ccccc1 [benzene] + CCCCCCCC
[1], x2 = 0
Settings	mass density [kg/m3]
298.15 K	873.62
308.15 K	863.01
318.15 K	852.16
328.15 K	841.49
